Test results taken from patent US8536196B2, “Substituted 1,3-dioxanes useful as PPAR modulators” (Evolva SA, priority 2007, dated 2013).

How the values were obtained:
3T3-L1 preadipocytes = experiment: Glucose uptake assay; assay type: cell-based
Experimental: This example illustrates that compounds identified as PPARgamma agonists also produce a physiological effect in cellular assays, expected of a PPARgamma agonist, namely an effect on glucose uptake. Glucose uptake assays are important to establish the suitability of a compound for the treatment of insulin resistance.
Briefly, 3T3-L1 preadipocytes are grown in 12-well plates until confluence. Cells are washed with serum-free DMEM and incubated with 1 ml of the same medium at 37° C. for 1-2 h. The cells are then washed with Krebs-Ringer-Hepes (KRP) buffer and then incubated with 0.9 ml KRP buffer at 37° C. for 30 min. Insulin is added to the cells at 0, 0.3, 1 and 3 nM final concentrations and incubated for 15 min at 37° C. Glucose uptake is initiated by the addition of 0.1 ml of Krebs-Ringer phosphate (KRP) buffer supplemented with 10 mM [^3H] 2-deoxy-D-glucose (1 mCi/l). After 10 min incubation at 37° C., the medium is aspirated and plates washed with ice-cold PBS to terminate the induced glucose uptake. The cells are lyzed with 0.5 ml 1% Triton X-100 and radioactivity levels determined using a scintillation counter. The results are depicted in FIG. 7.

PPARgamma (h) = target: T1, PPARgamma (h) (Homo sapiens, UniProt P37231); experiment: Human recombinant (E. coli) PPARgamma (h) binding assay; conditions: [3H]-rosiglitazone 10 nM, 120 min at 4° C.
T1 construct: host or cells: E. coli
T1 sequence (P37231 1-505): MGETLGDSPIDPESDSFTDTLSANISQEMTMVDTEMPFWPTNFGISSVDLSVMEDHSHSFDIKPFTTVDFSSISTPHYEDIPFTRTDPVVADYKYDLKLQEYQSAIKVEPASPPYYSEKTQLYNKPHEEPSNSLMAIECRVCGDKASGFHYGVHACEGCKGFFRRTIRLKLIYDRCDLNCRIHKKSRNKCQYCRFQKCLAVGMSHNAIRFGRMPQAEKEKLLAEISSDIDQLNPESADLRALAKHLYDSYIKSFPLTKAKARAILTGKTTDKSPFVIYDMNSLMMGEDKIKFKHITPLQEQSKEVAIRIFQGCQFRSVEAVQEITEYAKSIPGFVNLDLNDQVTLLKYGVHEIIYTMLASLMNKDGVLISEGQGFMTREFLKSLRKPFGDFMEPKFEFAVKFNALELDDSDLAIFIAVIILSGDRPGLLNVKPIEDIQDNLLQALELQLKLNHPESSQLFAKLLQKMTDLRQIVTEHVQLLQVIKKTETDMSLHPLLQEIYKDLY
Experimental: The results are expressed as a percent of control specific binding ((measured specific binding/control specific binding)×100) obtained in the presence of the test compounds. The IC50 values (concentration causing a half-maximal inhibition of control specific binding) and Hill coefficients (nH) were determined by non-linear regression analysis of the competition curves generated with mean replicate values using Hill equation curve fitting (Y=D+[(A D)/(1+(C/C50)nH)], where Y=specific binding, D=minimum specific binding, A=maximum specific binding, C=compound concentration, C50=IC50, and nH=slope factor). This analysis was performed using a software developed at Cerep (Hill software) and validated by comparison with data generated by the commercial software SigmaPlot® 4.0 for Windows® (© 1997 by SPSS Inc.). The inhibition constants (Ki) were calculated using the Cheng Prusoff equation (Ki=IC50/(1+(L/KD)), where L=concentration of radioligand in the assay, and KD=affinity of the radioligand for the receptor).

`O=C(O)CC/C=C\CC1COC(c2ccccc2Cl)OC1c1ccccc1O` (racemic) [SN1, (Z)-6-(-2-(2-chlorophenyl)-4-(2-hydroxyphenyl)-1,3-dioxan-5-yl)hex-4-enoic acid] was tested, and the “glucose uptake compared with Avandia” value (3T3-L1 preadipocytes) was “same level of glucose uptake at 10 mM as Avandia at 1 mM” and the IC50 (PPARgamma (h)) was 21 µM.
